These results are taken from the Kinase Knowledgebase extract (Sharma et al. 2016).

Some results are limits rather than exact numbers.

Sequence of MAPK14 (human) (Q16539 whole entry, looked up): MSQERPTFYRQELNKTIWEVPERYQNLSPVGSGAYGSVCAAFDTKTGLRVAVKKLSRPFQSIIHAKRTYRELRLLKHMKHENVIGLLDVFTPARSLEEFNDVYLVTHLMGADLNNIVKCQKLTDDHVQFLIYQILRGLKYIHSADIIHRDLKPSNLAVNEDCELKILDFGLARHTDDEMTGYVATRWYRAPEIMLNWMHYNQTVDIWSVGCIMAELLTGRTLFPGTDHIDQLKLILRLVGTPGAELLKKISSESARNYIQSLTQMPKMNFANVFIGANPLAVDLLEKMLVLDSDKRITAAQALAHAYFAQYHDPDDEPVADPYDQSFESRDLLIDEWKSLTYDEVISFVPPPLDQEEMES

The assay has as its target MAPK14 (human) (UniProt Q16539). The assay can be described thus: Assessment of MAPK14 Kinase Activity.
`Cc1ccc(NC(=O)Nc2sc(C(C)(C)C)cc2C(=O)N2CCNC(=O)C2(C)C)cc1-c1ccc(N2CCC(N)C2)nc1` (centres undefined): the half-inhibitory concentration (IC50) is under 100 nM.

The compound `Cc1ccc(NC(=O)Nc2cn(C(C)(C)C)nc2C(=O)N2CCN(C)C(=O)C2(C)C)cc1-c1ccc(CN2CCOCC2)cn1` showed an IC50 of under 100 nM.

`CN(C)CCCOc1ccc(-c2cccc(NC(=O)Nc3sc(C(C)(C)C)cc3C(=O)N3CCNC(=O)C3(C)C)c2)cn1` displayed an IC50 of under 100 nM.

`COc1ccc(-c2cc(NC(=O)Nc3cc(C(C)(C)C)sc3C(=O)N3CCN(C)C(=O)C3(C)C)ccc2C)cn1` gave a half-inhibitory concentration (IC50) of under 100 nM.

With `COc1ccc(-c2cc(NC(=O)Nc3sc(C(C)(C)C)cc3C(=O)N3CCN(C)C(=O)C3(C)C)cc(F)c2C)cn1`, the IC50 is under 100 nM.

`Cc1ccc(NC(=O)Nc2cn(C(C)(C)C)nc2C(=O)N2CCNC(=O)C2(C)C)cc1-c1ccc(C(C)C)nc1` showed an IC50 of under 100 nM.

Compound `CCN(CC)Cc1ccc(-c2cc(NC(=O)Nc3sc(C(C)(C)C)cc3C(=O)N3CCN(C)C(=O)C3(C)C)ccc2C)cn1` came in with a concentration for half-maximal inhibition (IC50) of under 100 nM.

In the case of `Cc1ccc(-c2cc(NC(=O)Nc3sc(C(C)(C)C)cc3C(=O)N3CCNC(=O)C3(C)C)ccc2C)nn1`, the half-maximal inhibitory concentration (IC50) was under 100 nM. The value for `Cc1c(NC(=O)Nc2sc(C(C)(C)C)cc2C(=O)N2CCNC(=O)C2(C)C)cccc1-c1ccc(N2CCOCC2)nc1` was under 100 nM; that for `Cc1ccc(NC(=O)Nc2sc(C(C)(C)C)cc2C(=O)N2CCNC(=O)C2(C)C)cc1-c1ccc(N2CCN(C)CC2)nc1` was under 100 nM. The compound `COCCNC(=O)c1ccc(-c2cc(NC(=O)Nc3sc(C(C)(C)C)cc3C(=O)N3CCN(C)C(=O)C3(C)C)ccc2C)cn1` displayed a 50% inhibitory concentration (IC50) of under 100 nM. `Cc1ccc(NC(=O)Nc2sc(C(C)(C)C)cc2C(=O)N2CCN(C)C(=O)C2(C)C)cc1-c1ccc(OC(C)C)nc1` displayed a half-inhibitory concentration (IC50) of under 100 nM. As for `Cc1ccc(NC(=O)Nc2cc(C(C)(C)C)oc2C(=O)N2CCNC(=O)C2(C)C)cc1-c1ccc(OCCN(C)C)nc1`, the IC50 is under 100 nM. With `Cc1ccc(NC(=O)Nc2sc(C(C)(C)C)cc2C(=O)N2CCN(C)C(=O)C2(C)C)cc1-c1ccc(N2CCN(C)CC2)nc1`, the IC50 is under 100 nM. `Cc1ccc(NC(=O)Nc2sc(C(C)(C)C)cc2C(=O)N2CCNC(=O)C2(C)C)cc1-c1ccccn1` yielded a 50% inhibitory concentration (IC50) of under 100 nM.

As for `CCC(C)(C)c1cc(C(=O)N2CCN(C)C(=O)C2(C)C)c(NC(=O)Nc2ccc(C)c(-c3ccc(CN4CCOCC4)nc3)c2)s1`, the 50% inhibitory concentration (IC50) is under 100 nM. In turn, `CC(C)(C)c1cc(C(=O)N2CCNC(=O)C2(C)C)c(NC(=O)Nc2cccc(-c3ccnc(F)c3)c2)s1` had an IC50 of under 100 nM. The value for `Cc1ccc(NC(=O)Nc2sc(C(C)(C)C)cc2C(=O)N2CCNC(=O)C2(C)C)cc1-c1cccnc1` was under 100 nM. The value for `Cc1ccc(NC(=O)Nc2sc(C(C)(C)C)cc2C(=O)N2CCNC(=O)CC2)cc1-c1cnc(N2CCOCC2)nc1` was under 100 nM; that for `C#Cc1ccc(-c2cc(NC(=O)Nc3sc(C(C)(C)C)cc3C(=O)N3CCNC(=O)C3(C)C)ccc2C)cn1` was under 100 nM. Take `Cc1ccc(NC(=O)Nc2cc(C(C)(C)C)sc2C(=O)N2CCNC(=O)C2(C)C)cc1-c1ccc(N2CCOCC2)cn1`: the IC50 was under 100 nM. In the case of `Cc1ccc(NC(=O)Nc2sc(C(C)(C)C)cc2C(=O)N2CCC(=O)N(C)CC2)cc1-c1ccc(N2CCOCC2)cn1`, the IC50 is under 100 nM.

`Cc1ccc(NC(=O)Nc2sc(C(C)(C)C)cc2C(=O)N2CCNC(=O)C2(C)C)cc1-c1ccc(N2CCCCC2)nc1` registered an IC50 of under 100 nM. `CC(C)(C)c1cc(C(=O)N2CCNC(=O)C2(C)C)c(NC(=O)Nc2cccc(-c3ccc(OCCCN4CCOCC4)nc3)c2)s1` displayed an IC50 of under 100 nM. The compound `CCc1ccc(-c2cc(NC(=O)Nc3sc(C(C)(C)C)cc3C(=O)N3CCN(CCN(C)C)C(=O)C3(C)C)ccc2C)cn1` yielded an IC50 of 100 to 1000 nM. In turn, `Cc1ccc(NC(=O)Nc2sc(C(C)(C)C)cc2C(=O)N2CCNC(=O)C2(C)C)cc1-c1ccc(CN2CCOCC2)cn1` gave a concentration for half-maximal inhibition (IC50) of under 100 nM.

In the case of `COc1ccc(-c2cc(NC(=O)Nc3sc(C(C)(C)C)cc3C(=O)N3CCNC(=O)C3(C)C)c(F)cc2C)cn1`, the IC50 was under 100 nM. Compound `CCOc1ccc(-c2cc(NC(=O)Nc3cn(C(C)(C)C)nc3C(=O)N3CCN(C)C(=O)C3(C)C)ccc2C)cn1` registered an IC50 of under 100 nM. Take `Cc1ccc(NC(=O)Nc2sc(C(C)(C)C)cc2C(=O)N2CCNC(=O)C2(C)C)cc1C#N`: the IC50 was under 100 nM. Turning to `CCOc1ccc(-c2cc(NC(=O)Nc3sc(C(C)(C)C)cc3C(=O)N3CCN(C)C(=O)C3(C)C)ccc2C)cn1`, the IC50 was under 100 nM. In the case of `CC(C)(C)c1cc(C(=O)N2CCNC(=O)C2(C)C)c(NC(=O)Nc2cccc(-c3cnco3)c2)s1` it was under 100 nM. Compound `Cc1ccc(NC(=O)Nc2sc(C(C)(C)C)cc2C(=O)N2CCNC(=O)C2(C)C)cc1-c1ccc(CN)nc1` returned an IC50 of under 100 nM.

On to `Cc1ccc(NC(=O)Nc2sc(C(C)(C)C)cc2C(=O)N2CCN(CCN(C)C)C(=O)C2(C)C)cc1-c1cccnc1`, for which the IC50 was under 100 nM. `Cc1ccc(NC(=O)Nc2sc(C(C)(C)C)cc2C(=O)N2CCNC(=O)C2(C)C)cc1N1C(=O)CN(C)C1=O` displayed a half-maximal inhibitory concentration (IC50) of under 100 nM. The value for `CCc1ccc(-c2cc(NC(=O)Nc3sc(C(C)(C)C)cc3C(=O)N3CCNC(=O)C3(C)C)ccc2C)cn1` was under 100 nM; that for `CCc1ccc(-c2cc(NC(=O)Nc3sc(C(C)(C)C)cc3C(=O)N3CCN(C)C(=O)C3(C)C)ccc2C)cn1` was under 100 nM. `Cc1ccc(NC(=O)Nc2sc(C(C)(C)C)cc2C(=O)N2CCN(C)C(=O)C2(C)C)cc1-c1ccc(C(C)(C)O)nc1` came in with a concentration for half-maximal inhibition (IC50) of under 100 nM. Turning to `CN(C)CCOc1ccc(-c2cccc(NC(=O)Nc3sc(C(C)(C)C)cc3C(=O)N3CCNC(=O)C3(C)C)c2)cn1`, the IC50 was under 100 nM.

In turn, `Cc1ccc(NC(=O)Nc2cc(C(C)(C)C)sc2C(=O)N2CCNC(=O)C2(C)C)cc1-c1ccc(N2CCOCC2)nc1` came in with a half-maximal inhibitory concentration (IC50) of under 100 nM.

On to `COc1ccc(-c2cc(NC(=O)Nc3sc(C(C)(C)C)cc3C(=O)N3CCNC(=O)C3(C)C)ccc2C)nc1`, for which the 50% inhibitory concentration (IC50) was under 100 nM. In turn, `Cc1ccc(NC(=O)Nc2sc(C(C)(C)C)cc2C(=O)N2CCNC(=O)C2(C)C)cc1C#CCOC1CCOCC1` registered an IC50 of under 100 nM. As to `CCc1ccc(-c2cc(NC(=O)Nc3cn(C(C)(C)C)nc3C(=O)N3CCN(C)C(=O)C3(C)C)ccc2C)cn1`, the concentration for half-maximal inhibition (IC50) is under 100 nM. For the compound `Cc1ccc(NC(=O)Nc2sc(C(C)(C)C)cc2C(=O)N2CCN(C)C(=O)C2(C)C)cc1-c1ccc(C[N+]2([O-])CCOCC2)[n+]([O-])c1`, the half-maximal inhibitory concentration (IC50) lay within 100 to 1000 nM. In the case of `Cc1nc(-c2cccc(NC(=O)Nc3sc(C(C)(C)C)cc3C(=O)N3CCNC(=O)C3(C)C)c2)cs1`, the IC50 was under 100 nM.
